{"source": "paper PMC4833387", "about": "(PLoS ONE, 2016)", "biological_target": "T1, Aurora B kinase (Homo sapiens, UniProt Q96GD4)", "T1 construct": "gene AURKB; 6×His-Aurora B/INCENP^(822–918); with INCENP^(822–918)", "T1 sequence (Q96GD4 whole entry)": "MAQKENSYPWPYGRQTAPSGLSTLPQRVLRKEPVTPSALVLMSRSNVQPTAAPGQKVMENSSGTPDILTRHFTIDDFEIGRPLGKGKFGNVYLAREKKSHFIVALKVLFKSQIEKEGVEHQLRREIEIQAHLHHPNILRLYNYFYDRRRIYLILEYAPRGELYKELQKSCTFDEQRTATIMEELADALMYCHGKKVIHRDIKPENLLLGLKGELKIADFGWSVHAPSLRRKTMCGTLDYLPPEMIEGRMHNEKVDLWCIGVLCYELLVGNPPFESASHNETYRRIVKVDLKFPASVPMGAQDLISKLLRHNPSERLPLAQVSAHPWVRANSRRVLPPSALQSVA", "T1 sequence (Q9NQS7 822-918 partner)": "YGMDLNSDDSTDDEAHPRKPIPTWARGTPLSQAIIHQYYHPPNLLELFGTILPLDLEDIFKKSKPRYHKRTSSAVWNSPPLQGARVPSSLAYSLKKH", "experiment": "in vitro […] kinase assay with recombinant complex (histone H3.[…] and MBP substrates); confirmed by IP kinase assay from HeLa lysates", "type": "biochemical"}
{"smiles": "CC(=O)c1cnc2ccc(-c3cc(Cl)c(O)c(Cl)c3)nc2c1N[C@H]1CC[C@H](CN(C)C)CC1", "note": "[OTSSP167]", "values": [{"measurement": "IC50", "result": "~25", "unit": "nM"}]}
